# Measurements taken from ChEMBL document CHEMBL3272271, “Folate antagonists. 13. 2,4-Diamino-6-](alpha,alpha,alpha-trifluoro-m-tolyl)thio]quinazoline and related 2,4-diamino-6-[(phenyl- and naphthyl)thio]quinazolines, a unique class of antimetabolites with extraordinary antimalarial and antibacterial effects” (J Med Chem, 1978).
# The source made the active and inactive calls. No cut-off for these calls is given here.
# How the values were obtained:
# [1] = system: Plasmodium gallinaceum; test: Antimalarial activity against trophozoite-induced Plasmodium gallinaceum infected in white leghorn chicken assessed as disease cure from parasite infection at 160 mg/kg, sc administered 72 hrs after infection; type: functional, organism-based; parameters: dose 160 mg/kg
# [2] = system: Gallus gallus; test: Toxicity in trophozoite-induced Plasmodium gallinaceum infected white leghorn chicken assessed as mortality at 320 mg/kg, sc administered 72 hrs after infection measured after 48 hrs; type: organism-based; parameters: dose 320 mg/kg, route subcutaneous; conditions: in vivo
# [3] = system: Enterococcus faecalis; test: Antibacterial activity against Streptococcus faecalis MGH-2 by gradient plate test; type: functional
# [4] = system: Staphylococcus aureus; test: Antibacterial activity against Staphylococcus aureus UC-96 by gradient plate test; type: functional
# [5] = system: Staphylococcus aureus; test: Antibacterial activity against drug-resistant Staphylococcus aureus S18713 by gradient plate test; type: functional
# [6] = system: Pseudomonas aeruginosa; test: Antibacterial activity against Pseudomonas aeruginosa 28 by gradient plate test; type: functional
# [7] = system: Escherichia coli; test: Antibacterial activity against Escherichia coli Vogel by gradient plate test; type: functional
# [8] = system: Shigella sonnei; test: Antibacterial activity against Shigella sonnei C-10 by gradient plate test; type: functional
# [9] = system: Plasmodium gallinaceum; test: Antimalarial activity against sporozoite-induced Plasmodium gallinaceum infected in white leghorn chicken assessed as disease cure from parasite infection at 320 mg/kg, sc administered 72 hrs after infection; type: functional, organism-based; parameters: dose 320 mg/kg
# [10] = system: Gallus gallus; test: Toxicity in sporozoite-induced Plasmodium gallinaceum infected white leghorn chicken assessed as mortality at 320 mg/kg, sc administered 72 hrs after infection measured up to 6 days; type: organism-based; parameters: dose 320 mg/kg, route subcutaneous; conditions: in vivo
# [11] = system: Plasmodium gallinaceum; test: Antimalarial activity against sporozoite-induced Plasmodium gallinaceum infected in white leghorn chicken assessed as disease cure from parasite infection at 160 mg/kg, sc administered 72 hrs after infection; type: functional, organism-based; parameters: dose 160 mg/kg
# [12] = system: Gallus gallus; test: Toxicity in sporozoite-induced Plasmodium gallinaceum infected white leghorn chicken assessed as mortality at 160 mg/kg, sc administered 72 hrs after infection measured up to 6 days; type: organism-based; parameters: dose 160 mg/kg, route subcutaneous; conditions: in vivo
# [13] = system: Plasmodium gallinaceum; test: Antimalarial activity against sporozoite-induced Plasmodium gallinaceum infected in white leghorn chicken assessed as increase in mean survival days of host at 80 mg/kg, sc administered 72 hrs after infection relative to control; type: functional; conditions: route subcutaneous
# [14] = system: Plasmodium gallinaceum; test: Antimalarial activity against sporozoite-induced Plasmodium gallinaceum infected in white leghorn chicken assessed as disease cure from parasite infection at 80 mg/kg, sc administered 72 hrs after infection; type: functional, organism-based; parameters: dose 80 mg/kg
# [15] = system: Gallus gallus; test: Toxicity in sporozoite-induced Plasmodium gallinaceum infected white leghorn chicken assessed as mortality at 80 mg/kg, sc administered 72 hrs after infection measured up to 6 days; type: organism-based; parameters: dose 80 mg/kg, route subcutaneous; conditions: in vivo
# [16] = system: Plasmodium gallinaceum; test: Antimalarial activity against sporozoite-induced Plasmodium gallinaceum infected in white leghorn chicken assessed as increase in mean survival days of host at 40 mg/kg, sc administered 72 hrs after infection relative to control; type: functional; conditions: route subcutaneous
# [17] = system: Plasmodium gallinaceum; test: Antimalarial activity against sporozoite-induced Plasmodium gallinaceum infected in white leghorn chicken assessed as disease cure from parasite infection at 40 mg/kg, sc administered 72 hrs after infection; type: functional, organism-based; parameters: dose 40 mg/kg
# [18] = system: Plasmodium gallinaceum; test: Antimalarial activity against sporozoite-induced Plasmodium gallinaceum infected in white leghorn chicken assessed as increase in mean survival days of host at 20 mg/kg, sc administered 72 hrs after infection relative to control; type: functional; conditions: route subcutaneous
# [19] = system: Plasmodium gallinaceum; test: Antimalarial activity against sporozoite-induced Plasmodium gallinaceum infected in white leghorn chicken assessed as disease cure from parasite infection at 20 mg/kg, sc administered 72 hrs after infection; type: functional, organism-based; parameters: dose 20 mg/kg
# [20] = system: Plasmodium gallinaceum; test: Antimalarial activity against sporozoite-induced Plasmodium gallinaceum infected in white leghorn chicken assessed as increase in mean survival days of host at 10 mg/kg, sc administered 72 hrs after infection relative to control; type: functional; conditions: route subcutaneous
# [21] = system: Plasmodium gallinaceum; test: Antimalarial activity against sporozoite-induced Plasmodium gallinaceum infected in white leghorn chicken assessed as increase in mean survival days of host at 5 mg/kg, sc administered 72 hrs after infection relative to control; type: functional; conditions: route subcutaneous
# [22] = system: Plasmodium berghei; test: Antimalarial activity against Plasmodium berghei infected in mouse assessed as increase in mean survival days of host at 160 mg/kg, sc administered 72 hrs after infection relative to control; type: functional; conditions: route subcutaneous
# [23] = system: Plasmodium berghei; test: Antimalarial activity against Plasmodium berghei infected in mouse assessed as increase in mean survival days of host at 80 mg/kg, sc administered 72 hrs after infection relative to control; type: functional; conditions: route subcutaneous
# [24] = system: Plasmodium berghei; test: Antimalarial activity against Plasmodium berghei infected in mouse assessed as increase in mean survival days of host at 40 mg/kg, sc administered 72 hrs after infection relative to control; type: functional; conditions: route subcutaneous
# [25] = system: Plasmodium berghei; test: Antimalarial activity against Plasmodium berghei infected in mouse assessed as increase in mean survival days of host at 20 mg/kg, sc administered 72 hrs after infection relative to control; type: functional; conditions: route subcutaneous
# [26] = system: Plasmodium berghei; test: Antimalarial activity against Plasmodium berghei infected in mouse assessed as increase in mean survival days of host at 10 mg/kg, sc administered 72 hrs after infection relative to control; type: functional; conditions: route subcutaneous
# [27] = system: Plasmodium berghei; test: Antimalarial activity against Plasmodium berghei infected in mouse assessed as disease cure from parasite infection at 640 mg/kg, sc administered 72 hrs after infection; type: functional, organism-based; parameters: dose 640 mg/kg
# [28] = system: Plasmodium berghei; test: Antimalarial activity against Plasmodium berghei infected in mouse assessed as disease cure from parasite infection at 320 mg/kg, sc administered 72 hrs after infection; type: functional, organism-based; parameters: dose 320 mg/kg
# [29] = system: Plasmodium berghei; test: Antimalarial activity against Plasmodium berghei infected in mouse assessed as disease cure from parasite infection at 160 mg/kg, sc administered 72 hrs after infection; type: functional, organism-based; parameters: dose 160 mg/kg
# [30] = system: Mus musculus; test: Toxicity in Plasmodium berghei infected mouse assessed as mortality at 640 mg/kg, sc administered 72 hrs after infection measured after 2 to 5 days; type: organism-based; parameters: dose 640 mg/kg, route subcutaneous; conditions: in vivo
# [31] = system: Plasmodium berghei; test: Antimalarial activity against trophozoite-induced Plasmodium berghei infected in mouse assessed as daily dose required to suppression of 90% parasite infection administered with diet for 6 days; type: functional
# [32] = system: Plasmodium berghei; test: Ratio of quinine hydrochloride SD90 to compound SD90 for trophozoite-induced Plasmodium berghei infected in mouse assessed as daily dose required to suppression of 90% parasite infection administered with diet for 6 days; type: functional
# [33] = system: Plasmodium gallinaceum; test: Antimalarial activity against trophozoite-induced Plasmodium gallinaceum infected in white leghorn chicken assessed as increase in mean survival days of host at 160 mg/kg, sc administered 72 hrs after infection relative to control; type: functional; conditions: route subcutaneous
# [34] = system: Plasmodium gallinaceum; test: Antimalarial activity against trophozoite-induced Plasmodium gallinaceum infected in white leghorn chicken assessed as increase in mean survival days of host at 80 mg/kg, sc administered 72 hrs after infection relative to control; type: functional; conditions: route subcutaneous
# [35] = system: Plasmodium gallinaceum; test: Antimalarial activity against trophozoite-induced Plasmodium gallinaceum infected in white leghorn chicken assessed as increase in mean survival days of host at 40 mg/kg, sc administered 72 hrs after infection relative to control; type: functional; conditions: route subcutaneous
# [36] = system: Plasmodium gallinaceum; test: Antimalarial activity against trophozoite-induced Plasmodium gallinaceum infected in white leghorn chicken assessed as increase in mean survival days of host at 20 mg/kg, sc administered 72 hrs after infection relative to control; type: functional; conditions: route subcutaneous
# [37] = system: Plasmodium gallinaceum; test: Antimalarial activity against trophozoite-induced Plasmodium gallinaceum infected in white leghorn chicken assessed as increase in mean survival days of host at 10 mg/kg, sc administered 72 hrs after infection relative to control; type: functional; conditions: route subcutaneous
# [38] = system: Plasmodium gallinaceum; test: Antimalarial activity against trophozoite-induced Plasmodium gallinaceum infected in white leghorn chicken assessed as increase in mean survival days of host at 5 mg/kg, sc administered 72 hrs after infection relative to control; type: functional; conditions: route subcutaneous
# [39] = system: Plasmodium gallinaceum; test: Antimalarial activity against trophozoite-induced Plasmodium gallinaceum infected in white leghorn chicken assessed as increase in mean survival days of host at 2.5 mg/kg, sc administered 72 hrs after infection relative to control; type: functional; conditions: route subcutaneous
# [40] = system: Plasmodium gallinaceum; test: Antimalarial activity against trophozoite-induced Plasmodium gallinaceum infected in white leghorn chicken assessed as increase in mean survival days of host at 1.25 mg/kg, sc administered 72 hrs after infection relative to control; type: functional; conditions: route subcutaneous
# [41] = system: Plasmodium gallinaceum; test: Antimalarial activity against trophozoite-induced Plasmodium gallinaceum infected in white leghorn chicken assessed as increase in mean survival days of host at 0.63 mg/kg, sc administered 72 hrs after infection relative to control; type: functional; conditions: route subcutaneous
smiles,measurement,setting,value
Cc1cccc(Sc2ccc3nc(N)nc(N)c3c2)c1,Activity,[1],Active
same,Activity,[2],Toxic
same,MIC,[3],< 0.25 µg/mL
same,MIC,[4],< 0.25 µg/mL
same,MIC,[5],< 0.25 µg/mL
same,MIC,[6],> 25 µg/mL
same,MIC,[7],< 0.25 µg/mL
same,MIC,[8],1.5 µg/mL
same,Activity,[9],Active
same,Activity,[10],Toxic
same,Activity,[11],Active
same,Activity,[12],Toxic
same,MST,[13],4.7 days
same,Activity,[14],Active
same,Activity,[15],Toxic
same,MST,[16],1.7 days
same,Activity,[17],Active
same,MST,[18],3.8 days
same,Activity,[19],Active
same,MST,[20],1.8 days
same,MST,[21],0.3 days
same,MST,[22],12.7 days
same,MST,[23],7.7 days
same,MST,[24],6.7 days
same,MST,[25],2.3 days
same,MST,[26],2.4 days
same,Activity,[27],Active
same,Activity,[28],Active
same,Activity,[29],Active
same,Activity,[30],Toxic
same,SD90,[31],6.2 mg/kg/day
same,Ratio,[32],12
same,MST,[33],10.7 days
same,MST,[34],7.8 days
same,MST,[35],6.4 days
same,MST,[36],6.2 days
same,MST,[37],6 days
same,MST,[38],0 days
same,MST,[39],0 days
same,MST,[40],0 days
same,MST,[41],0 days
